Reference: patent publication US20150065717A1, “NIPECOTIC ACID DERIVATIVE AND USE THEREOF FOR MEDICAL PURPOSES” (Toray Industries, Inc., priority 2012, published 2015)

What was measured:
[1] = system: rat monocrotaline-administered pulmonary hypertension model; test: Action on systemic blood pressure in rat monocrotaline-administered pulmonary hypertension model, single dose; type: in vivo, rat (SD strain); settings: single oral dose of 10 mg/kg on day 9 after monocrotaline; Hour 1, 2, 3, 4, 5 and 6 after administration
Experimental: Example Compound 1 was administered to monocrotaline-administered pulmonary hypertension model rats in a single dose, and the action of the nipecotic acid derivative (I) or a pharmaceutically acceptable salt thereof on the systemic blood pressure from immediately after the administration was evaluated.
Pulmonary hypertension was induced in Rats (SD strain, male, 11 weeks old; Charles River Laboratories Japan, Inc.) by subcutaneous administration of an aqueous monocrotaline (Sigma Corporation) solution (60 mg/kg) to the back.
On Day 7 after administration of monocrotaline, the rats with induced pulmonary hypertension were anesthetized, and hair in the femoral region and the nape was removed, followed by disinfection of the operative field using Isodine solution. […] The blood pressure was analyzed after amplification by Blood Pressure Amplifier, and the heart rate was analyzed via Heart Rate Counter using the pulse waveform as a trigger. […] From immediately after administration of Example Compound 1 or 0.5% aqueous methyl cellulose solution supplemented with 0.5% Tween 80, the mean systemic blood pressure was measured at Hour 1, 2, 3, 4, 5 and 6 after administration.

[2] = system: rat monocrotaline-administered pulmonary hypertension model; test: Rat monocrotaline-administered pulmonary hypertension model, administration from day of monocrotaline; type: in vivo, rat (Wistar strain); settings: for heart rate vs pulmonary hypertension control group / systemic systolic pressure vs pulmonary hypertension control group: Dunnett's test; for right ventricular systolic pressure vs pulmonary hypertension control group / right ventricular weight ratio vs pulmonary hypertension control group: Dunnett's test p<0.05
Experimental: Example Compound 1 or 2 was administered to a rat monocrotaline-administered pulmonary hypertension model (Journal of Pharmacological Sciences, 2009, vol. 111, p. 235-243), and the therapeutic effect of the nipecotic acid derivative (I) or a pharmaceutically acceptable salt thereof on pulmonary hypertension was evaluated.
Rats (Wistar strain, male, 5 weeks old; JAPAN SLC, Inc.) with pulmonary hypertension induced by subcutaneous administration of an aqueous monocrotaline (Sigma Corporation) solution (60 mg/kg) to the back were provided as “group with induced pulmonary hypertension”. On the other hand, rats to which water for injection was similarly administered were provided as “normal group”.
To rats in the group with induced pulmonary hypertension, Example Compound 1 (3, 10 or 30 mg/kg) or a positive control compound tadalafil (10 mg/kg) was orally administered once per day for 24 days from the day of administration of monocrotaline. The Example Compound 1 and tadalafil were used as suspensions in 0.5% aqueous methyl cellulose solution supplemented with 0.5% Tween 80. The groups in which Example Compound 1 was administered at doses of 3, 10 and 30 mg/kg were provided as “Example Compound 1 (3 mg/kg)-administered group”, “Example Compound 1 (10 mg/kg)-administered group” and “Example Compound 1 (30 mg/kg)-administered group”, respectively. The group in which tadalafil was administered at a dose of 10 mg/kg was provided as “tadalafil-administered group”. In addition, for comparative control, 0.5% aqueous methyl cellulose solution supplemented with 0.5% Tween 80 was similarly administered to rats in the group with induced pulmonary hypertension, to provide “pulmonary hypertension control group”. Similarly, 0.5% aqueous methyl cellulose solution supplemented with 0.5% Tween 80 was administered in the normal group.
On the next day of the last administration of the test substance, the right ventricular systolic pressure, systemic systolic pressure and heart rate were measured. The measurement of the right ventricular systolic pressure and the systemic systolic pressure was carried out using an amplifier for blood pressure measurement (Nihon Kohden Corporation). The measurement of the heart rate was carried out using an instant heart rate meter unit (Nihon Kohden Corporation). On the same day, the body weight, lung wet weight, and wet weights of the right ventricle, left ventricle and septum were measured to determine the right ventricular weight ratio (right ventricular weight/(septum weight+left ventricular weight)) and the lung weight ratio (lung weight/body weight).
The lungs were stored by immersion in formalin after measurement of the wet weight. The formalin-fixed lungs were embedded in paraffin, and sections were prepared. Immunostained tissue samples were prepared using an anti-sEH antibody to study expression of sEH. Pathological specimens were prepared by Elastica-van Gieson staining to study thickening of pulmonary arteries. Immunostained tissue samples were prepared using an anti-PCNA antibody to study cell growth. The right ventricle was stored by immersion in formalin after measurement of the wet weight. The formalin-fixed right ventricle was embedded in paraffin, and sections were prepared. Pathological specimens were prepared by HE staining to study myocardial hypertrophy.
The removed lungs were homogenized in a buffer, and 14,15-EET and 14,15-DHET were extracted. The extracted 14,15-EET was hydrolyzed for conversion to 14,15-DHET, and the 14,15-DHET concentration was measured by the ELISA method. The increase in the concentration of 14,15-DHET due to the hydrolysis was regarded as the 14,15-EET concentration, and the 14,15-EET/14,15-DHET ratio was determined.
FIGS. 4 to 6 show the results on the right ventricular systolic pressure, right ventricular weight ratio and lung weight ratio determined on the next day of the last administration of the test compound. […]

[3] = 3 mg/kg orally once per day for 24 days
[4] = 10 mg/kg orally once per day for 24 days from day of monocrotaline
[5] = 10 mg/kg orally once per day for 24 days
[6] = 30 mg/kg orally once per day for 24 days from day of monocrotaline
[7] = 30 mg/kg orally once per day for 24 days

CCC(=O)NC1(C(=O)N2CCC[C@@H](C(=O)NCc3ccc(C#N)cc3OC(F)(F)F)C2)CCC1 [Example Compound 1, (R)—N-(4-cyano-2-(trifluoromethoxy)benzyl)-1-(1-propionamidocyclobutanecarbonyl)piperidine-3-carboxamide]
mean systemic blood pressure vs pulmonary hypertension control group [1]: no significant difference
heart rate vs pulmonary hypertension control group [2, 3]: not significantly different
systemic systolic pressure vs pulmonary hypertension control group [2, 3]: not significantly different
thickening of pulmonary arteries in lungs vs pulmonary hypertension control group ([2]; 3 mg/kg, Elastica-van Gieson staining): less thickened pulmonary arteries
myocardial hypertrophy of the right ventricle vs pulmonary hypertension control group ([2]; 3 mg/kg, HE staining): less myocardial hypertrophy
cell growth in lungs vs pulmonary hypertension control group ([2]; 3 mg/kg, anti-PCNA immunostaining): less cell growth
lung weight ratio vs pulmonary hypertension control group [2, 4]: statistically significantly lower
right ventricular systolic pressure vs pulmonary hypertension control group [2, 4]: statistically significantly lower
right ventricular weight ratio vs pulmonary hypertension control group [2, 4]: statistically significantly lower
heart rate vs pulmonary hypertension control group [2, 5]: not significantly different
systemic systolic pressure vs pulmonary hypertension control group [2, 5]: not significantly different
14,15-EET/14,15-DHET ratio in lungs vs pulmonary hypertension control group ([2]; 10 mg/kg, ELISA): higher
right ventricular systolic pressure vs pulmonary hypertension control group [2, 6]: statistically significantly lower
right ventricular weight ratio vs pulmonary hypertension control group [2, 6]: statistically significantly lower
heart rate vs pulmonary hypertension control group [2, 7]: not significantly different
systemic systolic pressure vs pulmonary hypertension control group [2, 7]: not significantly different

CC(C)(NS(C)(=O)=O)C(=O)N1CCC[C@@H](C(=O)NCc2ccc(C#N)cc2OC(F)(F)F)C1 [Example Compound 2, (R)—N-(4-cyano-2-(trifluoromethoxy)benzyl)-1-(2-methyl-2-(methylsulfonamido)propanoyl)piperidine-3-carboxamide]
lung weight ratio vs pulmonary hypertension control group [2, 4]: lower
right ventricular systolic pressure vs pulmonary hypertension control group [2, 4]: statistically significantly lower
right ventricular weight ratio vs pulmonary hypertension control group [2, 4]: statistically significantly lower
heart rate vs pulmonary hypertension control group [2, 5]: not significantly different
systemic systolic pressure vs pulmonary hypertension control group [2, 5]: not significantly different
